ChEMBL document CHEMBL1151251, “Monanchorin, a bicyclic alkaloid from the sponge Monanchora ungiculata” (J Nat Prod, 2004)
≈ marks a conversion by molar mass, not a printed value.

Test: Cytotoxicity against mouse IC2 cells
Type: functional, cell-based

Compound	IC50
CC[C@@H]1C=CCC[C@]2(C[C@H]3CC[C@H]4[C@@H](C(=O)O)[C@@]5(CCC[C@H](C)O5)N=C(N2)N34)O1 [CRAMBESIDIN ACID]	25 µg/mL (≈ 62 µM)
CCCCC[C@@H]1O[C@@H]2CC[C@@H]1NC(=N)N2 [MONANCHORIC ACID]	11.3 µg/mL (≈ 53.5 µM)
